Measured values: patent US20240140931A1, “TRICYCLIC COMPOUNDS AND USES THEREOF” (HUTCHMED LIMITED, priority 2021, published 2024)
pIC50: −log10 of the molar value. Values belong to the compound of their own block, whether it stands above or below them.

How the values were obtained:
[1] = biological target: Human full-length SHP2 recombinant protein (Homo sapiens (Human), UniProt Q06124); test: Assay of full-length SHP2 phosphatase activity; type: biochemical; conditions: DiFMUP substrate, with activating peptide
Summary of the method: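 Readout: DiFMUP hydrolysis fluorescence (355/460 nm) after 60 min at 25 °C, following 30 min RT preincubation of compound with peptide-activated full-length human SHP2. Controls were 1% DMSO with or without enzyme; IC50 by four-parameter logistic fit.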

[2] = test system: pERK1/2 (Thr202/Tyr204) in Miapaca2 cells; test: Assay of intracellular pERK1/2 (Thr202/Tyr204) phosphorylation; type: cell-based; conditions: pERK1/2 (Thr202/Tyr204) HTRF
Summary of the method: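 HTRF read-out (665/615 nm) of phospho-ERK1/2 Thr202/Tyr204 in lysates from Miapaca2 cells exposed for 2 h to 3-fold compound dilutions at 0.5% final DMSO. Controls: lysis buffer without cells and DMSO-treated cells; IC50 from four-parameter logistic fit.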

Compound: C#Cc1ccc2c(c1)[C@@H](N)C1(CCN(c3cc(=O)n(-c4c(F)cccc4Cl)c(C)n3)CC1)C2 [Compound 68]
- pIC50 [1]: 6.89
- pIC50 ([2]; Homo sapiens, MIA PaCa-2, 2 h): 6.29

Compound: C#Cc1ccc2c(c1)[C@@H](N)C1(CCN(c3cc(=O)n(-c4ccc(F)c(Cl)c4Cl)c(C)n3)CC1)C2 [Compound 69]
- pIC50 [1]: 8.30
- pIC50 ([2]; 2 hours): 7.18

Compound: Cc1nc(N2CCC3(CC2)Cc2ccc(C#CCN(C)C)cc2[C@H]3N)cc(=O)n1-c1ccc(F)c(Cl)c1Cl [Compound 70]
- pIC50 [1]: 8.70
- pIC50 ([2]; Homo sapiens, MIA PaCa-2, 2 h): 6.85

Compound: CN(C)CC#Cc1ccc2c(c1)[C@@H](N)C1(CCN(c3ncc(Sc4ccnc(N)c4Cl)c4nccn34)CC1)C2 [Compound 71]
- pIC50 [1]: 9.00
- pIC50 ([2]; Homo sapiens, MIA PaCa-2, 2 h): 7.66

Compound: CN(C)CC#Cc1ccc2c(c1)C(=O)C1(CCN(c3ncc(Sc4ccnc(N)c4Cl)c4nccn34)CC1)C2 [Compound 72]
- pIC50 [1]: 6.01
- pIC50 ([2]; Homo sapiens, MIA PaCa-2, 2 h): < 6.00

Compound: C#Cc1ccc2c(c1)[C@@H](N)C1(CCN(c3cc(=O)n(-c4cc(Cl)ccc4Cl)c(C)n3)CC1)C2 [Compound 73]
- pIC50 [1]: 6.60
- pIC50 ([2]; Homo sapiens, MIA PaCa-2, 2 h): < 6.00

Compound: Cc1nc(N2CCC3(CC2)Cc2ccc(C#CCN(C)C)cc2[C@H]3N)cc(=O)n1-c1cccc(F)c1Cl [Compound 74]
- pIC50 [1]: 8.40
- pIC50 ([2]; Homo sapiens, MIA PaCa-2, 2 h): 6.65

Compound: Cc1nc(N2CCC3(CC2)Cc2ccc(C#CCN(C)C)cc2[C@H]3N)n2ccnc2c1Sc1ccnc(N)c1Cl [Compound 75]
- pIC50 [1]: 8.70
- pIC50 ([2]; Homo sapiens, MIA PaCa-2, 2 h): 7.34

Compound: Nc1nccc(Sc2cnc(N3CCC4(CC3)Cc3ccc(C#CCO)cc3[C@H]4N)n3ccnc23)c1Cl [Compound 76]
- pIC50 [1]: 8.70
- pIC50 ([2]; Homo sapiens, MIA PaCa-2, 2 h): 8.40

Compound: C#Cc1ccc2c(c1)[C@@H](N)C1(CCN(c3cc(=O)n(-c4ccc(F)c(OC)c4F)c(C)n3)CC1)C2 [Compound 78]
- pIC50 [1]: 8.52
- pIC50 ([2]; 2 hours): 7.37

Compound: CC#Cc1ccc2c(c1)[C@@H](N)C1(CCN(c3cc(=O)n(-c4cccc(Cl)c4Cl)c(C)n3)CC1)C2 [Compound 79]
- pIC50 [1]: 9.00
- pIC50 ([2]; Homo sapiens, MIA PaCa-2, 2 h): 7.22

Compound: C#Cc1cccc2c1CC1(CCN(c3cc(=O)n(-c4cccc(Cl)c4Cl)c(C)n3)CC1)[C@@H]2N [Compound 80]
- pIC50 [1]: 8.40
- pIC50 ([2]; Homo sapiens, MIA PaCa-2, 2 h): 6.90

Compound: COCC#Cc1ccc2c(c1)[C@@H](N)C1(CCN(c3cc(=O)n(-c4ccc(F)c(OC)c4F)c(C)n3)CC1)C2 [Compound 82]
- pIC50 [1]: 8.70
- pIC50 ([2]; Homo sapiens, MIA PaCa-2, 2 h): 7.37

Compound: COc1c(F)ccc(-n2c(C)nc(N3CCC4(CC3)Cc3ccc(C#CCN(C)C)cc3[C@H]4N)cc2=O)c1F [Compound 83]
- pIC50 [1]: 9.00
- pIC50 ([2]; Homo sapiens, MIA PaCa-2, 2 h): 7.24

Continued, values first:

- pIC50 [1]: 7.17
- pIC50 ([2]; Homo sapiens, MIA PaCa-2, 2 h): < 6.00
Compound: Cc1nc(N2CCC3(CC2)Cc2ccc(C#CCN(C)C)cc2[C@H]3N)cc(=O)n1-c1cc(Cl)ccc1Cl [Compound 84]

- pIC50 [1]: 7.30
- pIC50 ([2]; Homo sapiens, MIA PaCa-2, 2 h): 6.11
Compound: Cc1nc(N2CCC3(CC2)Cc2ccc(C#CCO)cc2[C@H]3N)cc(=O)n1-c1cc(Cl)ccc1Cl [Compound 85]

- pIC50 [1]: 8.70
- pIC50 ([2]; Homo sapiens, MIA PaCa-2, 2 h): 8.22
Compound: COCC#Cc1ccc2c(c1)[C@@H](N)C1(CCN(c3cnc(Sc4ccnc(N)c4Cl)c(N)n3)CC1)C2 [Compound 86]

- pIC50 [1]: 9.00
- pIC50 ([2]; Homo sapiens, MIA PaCa-2, 2 h): 8.70
Compound: COCC#Cc1ccc2c(c1)[C@@H](N)C1(CCN(c3ncc(Sc4ccnc(N)n4)nc3CO)CC1)C2 [Compound 87, (S)-(3-(1-amino-6-(3-methoxyprop-1-yn-1-yl)-1,3-dihydrospiro[indene-2,4′-piperidin]-1′-yl)-6-((2-aminopyrimidin-4-yl)thio)pyrazin-2-yl)methanol]

- pIC50 [1]: 8.96
- pIC50 ([2]; 2 hours): 7.28
Compound: C#Cc1ccc2c(c1)[C@@H](N)C1(CCN(c3cc(=O)n(-c4cccc(OC)c4Cl)c(C)n3)CC1)C2 [Compound 90]

- pIC50 [1]: 9.15
- pIC50 ([2]; Homo sapiens, MIA PaCa-2, 2 h): 7.77
Compound: CNCC#Cc1ccc2c(c1)[C@@H](N)C1(CCN(c3ncc(Sc4ccnc(N)c4Cl)c4nccn34)CC1)C2 [Compound 91]

- pIC50 [1]: 7.96
- pIC50 ([2]; Homo sapiens, MIA PaCa-2, 2 h): 6.93
Compound: C#Cc1ccc2c(c1)[C@@H](N)C1(CCN(c3nc(C)n(-c4ccc(OCC)cc4Cl)c(=O)c3C)CC1)C2 [Compound 92]

- pIC50 [1]: 7.80
- pIC50 ([2]; Homo sapiens, MIA PaCa-2, 2 h): 6.52
Compound: COCC#Cc1ccc2c(c1)[C@@H](N)C1(CCN(c3cc(=O)n(-c4ccc(C#N)cc4Cl)c(C)n3)CC1)C2 [Compound 93]

- pIC50 [1]: 8.15
- pIC50 ([2]; Homo sapiens, MIA PaCa-2, 2 h): 6.81
Compound: C#Cc1ccc2c(c1)[C@@H](N)C1(CCN(c3cc(=O)n(-c4ccc(C#N)cc4Cl)c(C)n3)CC1)C2 [Compound 94]

- pIC50 [1]: 8.52
- pIC50 ([2]; Homo sapiens, MIA PaCa-2, 2 h): 8.70
Compound: C#Cc1ccc2c(c1)[C@@H](N)C1(CCN(c3cnc(Sc4ccnc(N)c4Cl)c(N)n3)CC1)C2 [Compound 95]

- pIC50 [1]: 8.30
- pIC50 ([2]; Homo sapiens, MIA PaCa-2, 2 h): 7.26
Compound: COCC#Cc1cccc2c1CC1(CCN(c3cc(=O)n(-c4cccc(Cl)c4Cl)c(C)n3)CC1)[C@@H]2N [Compound 96]

- pIC50 [1]: 8.70
- pIC50 ([2]; Homo sapiens, MIA PaCa-2, 2 h): 7.96
Compound: COCC#Cc1cccc2c1CC1(CCN(c3ncc(Sc4ccnc(N)c4Cl)c4nccn34)CC1)[C@@H]2N [Compound 97]
